Measurements published in patent publication US20240189318A1, “THERAPEUTIC REGIMENS OF AN INHIBITOR OF THE ENZYMATIC ACTIVITY OF BRG1 AND BRM” (FOGHORN THERAPEUTICS INC., priority 2021, published 2024).
pIC50: −log10 of the molar value.

Experiments:
CYP2D6 = CYP2D6 (Homo sapiens, UniProt P10635); experiment: CYP enzyme inhibition in pooled human liver microsomes, CYP2D6; settings: for inhibition at 30 µM: human, microsomes, Enzyme activity (% inhibition), CYP2D6, probe Dextromethorphan
CYP3A4 = CYP3A4 (Homo sapiens, UniProt P08684); experiment: Depletion by recombinant CYP enzyme, CYP3A4; assay type: in vitro ADME; settings: recombinant 3A4
Sequence of CYP3A4 (P08684 whole entry): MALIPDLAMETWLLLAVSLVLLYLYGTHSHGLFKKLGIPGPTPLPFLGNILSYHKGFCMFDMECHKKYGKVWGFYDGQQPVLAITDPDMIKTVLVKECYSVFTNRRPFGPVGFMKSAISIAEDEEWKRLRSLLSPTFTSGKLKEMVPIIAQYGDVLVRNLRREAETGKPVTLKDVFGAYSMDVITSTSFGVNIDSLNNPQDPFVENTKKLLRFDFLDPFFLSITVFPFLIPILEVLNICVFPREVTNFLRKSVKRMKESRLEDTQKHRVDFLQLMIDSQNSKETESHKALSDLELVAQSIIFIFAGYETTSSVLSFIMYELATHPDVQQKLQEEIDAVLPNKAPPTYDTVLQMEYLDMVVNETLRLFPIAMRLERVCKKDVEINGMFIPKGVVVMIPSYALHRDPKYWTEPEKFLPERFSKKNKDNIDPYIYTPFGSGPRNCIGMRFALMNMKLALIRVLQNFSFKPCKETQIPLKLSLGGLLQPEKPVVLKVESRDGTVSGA

CYP2B6 = target: T1, CYP2B6 (Homo sapiens, UniProt P20813); experiment: CYP enzyme inhibition in pooled human liver microsomes, CYP2B6; settings: for inhibition at 30 µM: human, microsomes, Enzyme activity (% inhibition), CYP2B6, probe Efavirenz
T1 sequence (P20813 1-491): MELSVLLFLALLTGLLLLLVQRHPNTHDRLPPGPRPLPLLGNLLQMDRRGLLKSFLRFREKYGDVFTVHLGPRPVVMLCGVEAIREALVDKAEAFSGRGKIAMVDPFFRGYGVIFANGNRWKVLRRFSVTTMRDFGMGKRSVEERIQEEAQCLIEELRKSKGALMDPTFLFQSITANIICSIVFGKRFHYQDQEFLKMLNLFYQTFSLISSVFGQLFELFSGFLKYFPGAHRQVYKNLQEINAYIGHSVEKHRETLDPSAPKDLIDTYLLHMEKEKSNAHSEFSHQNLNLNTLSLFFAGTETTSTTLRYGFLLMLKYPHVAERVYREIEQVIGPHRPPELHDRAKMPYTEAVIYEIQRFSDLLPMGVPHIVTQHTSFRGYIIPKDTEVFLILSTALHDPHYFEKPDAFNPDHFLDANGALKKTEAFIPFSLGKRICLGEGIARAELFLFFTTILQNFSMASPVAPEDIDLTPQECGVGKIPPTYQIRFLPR

CYP1A2 = target: T2, CYP1A2 (Homo sapiens, UniProt P05177); experiment: Depletion by recombinant CYP enzyme, CYP1A2; assay type: in vitro ADME; set-up: from tissue; host or cells: pooled human liver microsomes; settings: recombinant 1A2
T2 sequence (P05177 1-516): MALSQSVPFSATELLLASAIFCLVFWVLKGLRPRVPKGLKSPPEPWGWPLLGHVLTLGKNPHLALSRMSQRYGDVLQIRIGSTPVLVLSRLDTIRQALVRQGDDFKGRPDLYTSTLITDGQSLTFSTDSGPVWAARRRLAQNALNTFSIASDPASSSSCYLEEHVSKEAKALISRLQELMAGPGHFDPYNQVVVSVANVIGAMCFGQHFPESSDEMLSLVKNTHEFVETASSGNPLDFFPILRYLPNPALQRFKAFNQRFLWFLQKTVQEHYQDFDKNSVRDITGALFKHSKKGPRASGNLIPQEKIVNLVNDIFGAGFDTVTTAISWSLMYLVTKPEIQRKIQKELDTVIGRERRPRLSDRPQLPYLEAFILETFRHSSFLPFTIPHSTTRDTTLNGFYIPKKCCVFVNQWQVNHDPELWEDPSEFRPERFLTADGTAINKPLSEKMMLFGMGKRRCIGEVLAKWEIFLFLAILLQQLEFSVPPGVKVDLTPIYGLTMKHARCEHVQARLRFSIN

CHD4 enzyme = CHD4 enzyme (Homo sapiens, UniProt Q14839); experiment: ADP-Glo ATPase assay, CHD4; assay type: biochemical; settings: concentrations up to 200 μM (n=3)
Sequence of CHD4 enzyme (Q14839 whole entry, species assumed): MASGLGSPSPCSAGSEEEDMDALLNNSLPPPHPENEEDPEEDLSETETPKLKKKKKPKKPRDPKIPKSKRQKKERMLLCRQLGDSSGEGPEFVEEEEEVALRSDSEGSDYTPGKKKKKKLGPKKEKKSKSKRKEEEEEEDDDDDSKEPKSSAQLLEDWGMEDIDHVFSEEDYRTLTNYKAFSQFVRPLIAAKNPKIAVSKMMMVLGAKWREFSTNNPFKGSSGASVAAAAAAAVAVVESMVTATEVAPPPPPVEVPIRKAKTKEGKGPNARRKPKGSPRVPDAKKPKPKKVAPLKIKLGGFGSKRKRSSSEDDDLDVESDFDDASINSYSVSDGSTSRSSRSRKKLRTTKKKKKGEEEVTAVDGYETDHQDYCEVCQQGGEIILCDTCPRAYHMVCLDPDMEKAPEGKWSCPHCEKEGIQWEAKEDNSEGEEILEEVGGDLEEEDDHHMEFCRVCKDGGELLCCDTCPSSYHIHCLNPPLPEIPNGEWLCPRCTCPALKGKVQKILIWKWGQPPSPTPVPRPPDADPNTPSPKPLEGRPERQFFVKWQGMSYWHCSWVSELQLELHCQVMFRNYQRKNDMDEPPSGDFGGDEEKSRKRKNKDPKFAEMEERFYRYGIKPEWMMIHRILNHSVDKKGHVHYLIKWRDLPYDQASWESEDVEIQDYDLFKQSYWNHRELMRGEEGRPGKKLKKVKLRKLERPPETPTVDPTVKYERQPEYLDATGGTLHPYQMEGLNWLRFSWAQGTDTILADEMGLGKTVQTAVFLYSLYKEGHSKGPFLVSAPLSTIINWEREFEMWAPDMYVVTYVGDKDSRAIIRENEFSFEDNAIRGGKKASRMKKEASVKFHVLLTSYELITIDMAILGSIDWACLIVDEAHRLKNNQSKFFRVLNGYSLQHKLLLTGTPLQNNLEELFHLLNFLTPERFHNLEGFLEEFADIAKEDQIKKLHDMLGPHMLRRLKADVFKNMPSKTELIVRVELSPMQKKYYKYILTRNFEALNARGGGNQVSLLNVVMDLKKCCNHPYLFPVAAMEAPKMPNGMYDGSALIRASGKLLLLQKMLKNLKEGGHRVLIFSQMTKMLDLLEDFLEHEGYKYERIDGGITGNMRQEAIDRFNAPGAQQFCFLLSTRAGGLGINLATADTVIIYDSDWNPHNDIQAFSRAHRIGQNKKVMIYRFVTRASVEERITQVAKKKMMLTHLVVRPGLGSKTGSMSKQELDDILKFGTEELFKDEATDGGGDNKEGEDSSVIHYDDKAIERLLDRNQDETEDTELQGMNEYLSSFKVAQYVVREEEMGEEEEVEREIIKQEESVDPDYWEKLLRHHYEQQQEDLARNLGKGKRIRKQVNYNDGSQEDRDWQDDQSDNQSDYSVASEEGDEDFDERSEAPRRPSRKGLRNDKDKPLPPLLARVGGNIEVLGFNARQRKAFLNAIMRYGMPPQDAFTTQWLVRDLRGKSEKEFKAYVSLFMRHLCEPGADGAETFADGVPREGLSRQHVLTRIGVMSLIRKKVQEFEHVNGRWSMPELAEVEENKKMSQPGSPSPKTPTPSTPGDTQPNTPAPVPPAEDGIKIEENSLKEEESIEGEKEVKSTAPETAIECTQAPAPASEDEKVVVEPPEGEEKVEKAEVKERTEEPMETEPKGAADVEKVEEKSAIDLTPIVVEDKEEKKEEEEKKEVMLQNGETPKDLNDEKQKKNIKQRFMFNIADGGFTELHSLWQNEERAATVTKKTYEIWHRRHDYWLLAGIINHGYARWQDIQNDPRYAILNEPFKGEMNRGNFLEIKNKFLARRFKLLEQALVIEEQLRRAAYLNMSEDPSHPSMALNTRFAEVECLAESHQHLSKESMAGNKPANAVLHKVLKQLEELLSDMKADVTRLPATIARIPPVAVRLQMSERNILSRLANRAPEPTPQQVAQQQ

CYP2C9 = CYP2C9 (Homo sapiens, UniProt P11712); experiment: CYP enzyme inhibition in pooled human liver microsomes, CYP2C9; settings: for inhibition at 30 µM: human, microsomes, Enzyme activity (% inhibition), CYP2C9, probe Diclofenac
Sequence of CYP2C9 (P11712 whole entry): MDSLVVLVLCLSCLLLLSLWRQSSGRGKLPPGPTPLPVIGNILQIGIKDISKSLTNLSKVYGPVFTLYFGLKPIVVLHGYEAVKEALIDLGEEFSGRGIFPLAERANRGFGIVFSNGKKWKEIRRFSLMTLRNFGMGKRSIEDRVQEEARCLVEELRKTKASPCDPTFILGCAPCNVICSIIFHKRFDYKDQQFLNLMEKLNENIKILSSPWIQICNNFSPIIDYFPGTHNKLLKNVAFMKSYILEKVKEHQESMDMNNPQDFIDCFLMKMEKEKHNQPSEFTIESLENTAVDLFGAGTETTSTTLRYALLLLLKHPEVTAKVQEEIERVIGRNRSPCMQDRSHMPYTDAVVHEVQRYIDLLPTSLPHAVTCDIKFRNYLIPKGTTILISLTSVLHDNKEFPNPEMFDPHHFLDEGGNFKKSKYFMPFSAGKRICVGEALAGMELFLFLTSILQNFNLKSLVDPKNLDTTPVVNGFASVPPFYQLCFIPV

[1] = tested on: cultured human hepatocytes; experiment: Cytotoxicity to cultured human hepatocytes (morphology, LDH release); settings: second study, 0.3 to 50 nM, 72 hours
[2] = tested on: Uveal melanoma cell lines, prostate cancer cells, acute leukemia cells, histocytic lymphoma cells; experiment: 3-day growth inhibition, all cell lines of Table 6; assay type: cell-based; settings: 3 days
[3] = PHLM, concentrations up to 30 μM
[4] = 30 Minutes Pre-incubation with NADPH, PHLM
[5] = 30 Minutes Pre-incubation without NADPH, PHLM

Sequence of CYP2D6 (P10635 whole entry): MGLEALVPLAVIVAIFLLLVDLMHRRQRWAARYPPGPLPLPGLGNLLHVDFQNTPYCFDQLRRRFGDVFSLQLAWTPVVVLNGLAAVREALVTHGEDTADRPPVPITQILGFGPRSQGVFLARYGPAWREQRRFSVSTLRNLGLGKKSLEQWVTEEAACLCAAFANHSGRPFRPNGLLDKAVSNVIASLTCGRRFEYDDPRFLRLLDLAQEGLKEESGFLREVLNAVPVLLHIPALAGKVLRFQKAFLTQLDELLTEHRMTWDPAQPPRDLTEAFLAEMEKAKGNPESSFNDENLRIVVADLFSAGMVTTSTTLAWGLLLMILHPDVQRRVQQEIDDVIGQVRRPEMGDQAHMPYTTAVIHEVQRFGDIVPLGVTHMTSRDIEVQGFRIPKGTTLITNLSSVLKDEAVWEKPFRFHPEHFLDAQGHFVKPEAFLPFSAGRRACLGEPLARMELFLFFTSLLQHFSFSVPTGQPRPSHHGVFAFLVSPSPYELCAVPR

COC[C@H](NC(=O)c1ccn(S(C)(=O)=O)c1)C(=O)Nc1nc(-c2cccc(N3C[C@@H](C)O[C@@H](C)C3)n2)cs1 [compound of formula (I), N-((S)-1-((4-(6-(cis-2,6-dimethylmorpholino)pyridin-2-yl)thiazol-2-yl)amino)-3-methoxy-1-oxopropan-2-yl)-1-(methylsulfonyl)-1H-pyrrole-3-carboxamide]
pIC50 (CYP2D6): < 4.52
direct inhibitory activity (% inhibition) toward CYP2D6 (CYP2D6; [3]): < 50%
inhibition at 30 µM (CYP2D6; [4]): 9.6%
inhibition at 30 µM (CYP2D6; [5]): 11.5%
inhibition at 30 µM (CYP2D6; No Pre-incubation, PHLM): 13.2%
% Remaining of Compound of Formula (I) (CYP3A4; 0.1 μM): 0.0%
% Remaining of Compound of Formula (I) (CYP3A4; 1 μM): 1.2%
pIC50 (CYP2B6): < 4.52
direct inhibitory activity (% inhibition) toward CYP2B6 (CYP2B6; [3]): < 50%
inhibition at 30 µM (CYP2B6; [4]): -10%
inhibition at 30 µM (CYP2B6; [5]): -6%
inhibition at 30 µM (CYP2B6; No Pre-incubation, PHLM): 7.6%
% Remaining of Compound of Formula (I) (CYP1A2; 0.1 μM): 89.4%
% Remaining of Compound of Formula (I) (CYP1A2; 1 μM): 113%
inhibition of the ATPase activity of the CHD4 enzyme (CHD4 enzyme): did not inhibit
pIC50 (CYP2C9): < 4.52
direct inhibitory activity (% inhibition) toward CYP2C9 (CYP2C9; [3]): < 50%
inhibition at 30 µM (CYP2C9; [4]): 43.5%
inhibition at 30 µM (CYP2C9; [5]): 29.5%
inhibition at 30 µM (CYP2C9; No Pre-incubation, PHLM): 47.1%
cytotoxicity to cultured human hepatocytes [1]: no evidence of cytotoxicity
growth inhibition in all the cell lines [2]: potent growth inhibition
